From ChEMBL document CHEMBL4014296, “Constituents with potent α-glucosidase inhibitory activity from Pueraria lobata (Willd.) ohwi” (Bioorg Med Chem Lett, 2017)
Active and inactive are the calls of the source. The calls are words filed in the database; no cut-off is given here.

How the values were obtained:
[1] = Inhibition of alpha glucosidase (unknown origin) using alpha PNPG as substrate preincubated for 15 mins followed by substrate addition measured after 15 mins; parameters: species or system Homo sapiens; conditions: for inhibition: Homo sapiens
[2] = Inhibition of alpha glucosidase (unknown origin) using alpha PNPG as substrate at 0.125 mg/mL preincubated for 15 mins followed by substrate addition measured after 15 mins relative to control; conditions: Homo sapiens
[3] = Inhibition of alpha glucosidase (unknown origin) using alpha PNPG as substrate at 0.25 mg/mL preincubated for 15 mins followed by substrate addition measured after 15 mins relative to control; conditions: Homo sapiens
[4] = Inhibition of alpha glucosidase (unknown origin) using alpha PNPG as substrate at 0.0625 mg/mL preincubated for 15 mins followed by substrate addition measured after 15 mins relative to control; conditions: Homo sapiens
[5] = Inhibition of alpha glucosidase (unknown origin) using alpha PNPG as substrate at 0.5 mg/mL preincubated for 15 mins followed by substrate addition measured after 15 mins relative to control; conditions: Homo sapiens
[6] = Solubility of the compound; type: physicochemical
Homo sapiens [7] = species on record: Homo sapiens; test: Potency index, ratio of acarbose IC50 to compound IC50 for alpha glucosidase (unknown origin)
Homo sapiens [8] = species on record: Homo sapiens; test: Irreversible inhibition of alpha glucosidase (unknown origin) using alpha PNPG as substrate at 0.005 mg/mL
Homo sapiens [9] = species on record: Homo sapiens; test: Inhibition of alpha glucosidase (unknown origin) using alpha PNPG as substrate at 5 mg/mL preincubated for 15 mins followed by substrate addition measured after 15 mins relative to control
Homo sapiens [10] = species on record: Homo sapiens; test: Inhibition of alpha glucosidase (unknown origin) using alpha PNPG as substrate at 1.25 mg/mL preincubated for 15 mins followed by substrate addition measured after 15 mins relative to control
Homo sapiens [11] = species on record: Homo sapiens; test: Inhibition of alpha glucosidase (unknown origin) using alpha PNPG as substrate at 0.00391 mg/mL preincubated for 15 mins followed by substrate addition measured after 15 mins relative to control
Homo sapiens [12] = species on record: Homo sapiens; test: Inhibition of alpha glucosidase (unknown origin) using alpha PNPG as substrate at 9.77 10^-4mg/ml preincubated for 15 mins followed by substrate addition measured after 15 mins relative to control
Homo sapiens [13] = species on record: Homo sapiens; test: Inhibition of alpha glucosidase (unknown origin) using alpha PNPG as substrate at 0.00195 mg/mL preincubated for 15 mins followed by substrate addition measured after 15 mins relative to control
Homo sapiens [14] = species on record: Homo sapiens; test: Inhibition of alpha glucosidase (unknown origin) using alpha PNPG as substrate at 10 mg/mL preincubated for 15 mins followed by substrate addition measured after 15 mins relative to control
Homo sapiens [15] = species on record: Homo sapiens; test: Inhibition of alpha glucosidase (unknown origin) using alpha PNPG as substrate at 4.88 10^-4mg/ml preincubated for 15 mins followed by substrate addition measured after 15 mins relative to control
Homo sapiens [16] = species on record: Homo sapiens; test: Inhibition of alpha glucosidase (unknown origin) using alpha PNPG as substrate at 2.5 mg/mL preincubated for 15 mins followed by substrate addition measured after 15 mins relative to control
Homo sapiens [17] = species on record: Homo sapiens; test: Inhibition of alpha glucosidase (unknown origin) using alpha PNPG as substrate at 0.03125 mg/mL preincubated for 15 mins followed by substrate addition measured after 15 mins relative to control
Homo sapiens [18] = species on record: Homo sapiens; test: Inhibition of alpha glucosidase (unknown origin) using alpha PNPG as substrate at 0.01563 mg/mL preincubated for 15 mins followed by substrate addition measured after 15 mins relative to control
Homo sapiens [19] = species on record: Homo sapiens; test: Inhibition of alpha glucosidase (unknown origin) using alpha PNPG as substrate at 0.00781 mg/mL preincubated for 15 mins followed by substrate addition measured after 15 mins relative to control
Homo sapiens [20] = species on record: Homo sapiens; test: Reversible inhibition of alpha glucosidase (unknown origin) using alpha PNPG as substrate at 0.01 mg/mL
Homo sapiens [21] = species on record: Homo sapiens; test: Non-competitive inhibition of alpha glucosidase (unknown origin) using varying levels of alpha PNPG substrate at 0.01 mg/mL by Lineweaver-Burk plot analysis

Row | Compound | IC50 [1] [µM] | inhibition [1] | inhibition [2] [%] | inhibition [3] [%] | inhibition [4] [%] | inhibition [5] [%] | other results
1 | COc1ccc2c(=O)cc(C(O)Cc3ccc(O)cc3)oc2c1 (stereo not drawn) | – | – | – | – | – | – | solubility [6]: Insoluble
2 | CC(C)=CCC/C(C)=C/Cc1cc2c3c(oc2cc1O)C(O)(O)c1ccc(O)cc1O3 | 1.79 | Dose-dependent effect | – | – | – | – | Ratio IC50 (Homo sapiens [7]): 1120; inhibition (Homo sapiens [8]): Active
3 | C[C@H]1O[C@H](O[C@H]2[C@H](O)[C@@H](O)[C@@H](O[C@H]3[C@H](O)[C@@H](O)C(O)O[C@@H]3CO)O[C@@H]2CO)[C@H](O)[C@@H](O)[C@@H]1N[C@H]1C=C(CO)[C@@H](O)[C@H](O)[C@H]1O (stereo partly drawn) [ACARBOSE] | 2000 | Dose-dependent effect | – | – | – | – | inhibition (Homo sapiens [9]): 58.4%; inhibition (Homo sapiens [10]): 42.2%; inhibition (Homo sapiens [11]): 89.5%; inhibition (Homo sapiens [12]): 79.7%; inhibition (Homo sapiens [13]): 85.6%; inhibition (Homo sapiens [14]): 82.2%; inhibition (Homo sapiens [15]): 17.7%; inhibition (Homo sapiens [16]): 51.1%
4 | O=c1c(-c2ccc(O)cc2)coc2cc(O)ccc12 [DAIDZEIN] | 23 | Dose-dependent effect | – | – | – | – | inhibition (Homo sapiens [17]): 72.8%; Ratio IC50 (Homo sapiens [7]): 87; inhibition (Homo sapiens [11]): 34.3%; inhibition (Homo sapiens [18]): 59%; inhibition (Homo sapiens [19]): 57.1%; inhibition (Homo sapiens [20]): Active; inhibition (Homo sapiens [21]): Active
5 | COc1ccc(-c2coc3cc(O[C@@H]4O[C@H](CO)[C@@H](O)[C@H](O)[C@H]4O)ccc3c2=O)cc1 [ONONIN] | 423 | Dose-dependent effect | 31.6 | 56.3 | 29.4 | 74.9 | –
6 | O=c1c(-c2ccc(O)cc2)coc2c([C@@H]3O[C@H](CO)[C@@H](O)[C@H](O)[C@H]3O)c(O)ccc12 [PUERARIN] | 524 | Dose-dependent effect | 21.9 | 41.5 | 5.26 | 78.3 | –

Second part, led by results:

Row | IC50 [1] [µM] | inhibition [1] | inhibition [2] [%] | inhibition [3] [%] | inhibition [4] [%] | inhibition [5] [%] | Compound | other results
7 | 182 to 379 | Dose-dependent effect | 49.9 | 60.1 | 42.5 | 86 | CC1(C)C=Cc2cc3c(cc2O1)O[C@@H]1c2ccc(O)cc2OC[C@@]31O | –
8 | 178 to 254 | Dose-dependent effect | 66.8 | 77.3 | 41.2 | 84.8 | O=c1c(-c2ccc(O)cc2)coc2cc(O[C@@H]3O[C@H](CO)[C@@H](O)[C@H](O)[C@H]3O)ccc12 [DAIDZIN] | –
